Our source for the IC50 values is US12559496B2, “Imidazopyrimidines as modulators of IL-17” (Janssen Pharmaceutica NV, priority 2020, dated 2026).

For assay [1], the system named is IL-17A-induced G-CSF production in human normal keratinocytes (NHK). In words: NHK Assay: IL-17A-induced G-CSF production in human normal keratinocytes. It is filed as cell-based. As to conditions: IL-17A 5 ng/mL, 24 h, 5% FBS, simple average if tested more than once. As for the experimental part:
IL-17A acts directly on keratinocytes through binding to dimeric receptor IL-17RA/RC and drives the production of a number of inflammatory mediators known to be elevated in psoriasis lesional tissue. IL-17A small molecule inhibitors that block the IL-17A to interact with IL-17R would inhibit the IL-17A signaling in its targeted cells such as keratinocytes. The compound functional activity is evaluated for its impact on IL-17A-induced G-CSF production in human normal keratinocytes (NHK).
Adult normal human keratinocytes are cultured in keratinocyte growth medium (Lonza) in a flask till reaching ˜ 90% confluence, then cells are transferred to a 384-well plate at density of 3000-4000 cell/well. Recombinant human IL-17A (Gibco PHC9174) is pre-incubated with titrated compound or DMSO for 1 h at rt then added to the cell culture plate. The final concentration of IL-17A is 5 ng/mL and DMSO is 0.2%, in the culture containing 5% FBS. Cells are cultured/treated for 24 h at 37° C. Supernatants are collected and G-CSF production is measured through HTRF technology using Human G-CSF Kit (CisBio). G-CSF concentration was extrapolated from the standard curve and IC50 is determined using GraphPad Prism. Cell viability is also evaluated using CellTiter-Glo kit (Promega) and effect of compound on cell viability is compared to DMSO control.

For assay [2], the target named is IL-17A(FLAG-Tagged): IL-17RA(His-Tagged) (Homo sapiens, UniProt Q16552, K93Q). In words: IL-17A(FLAG-Tagged): IL-17RA(His-Tagged) Binding Disruption Eu-HTRF Assay. The conditions noted are these: disruption of IL-17A/IL-17RA binding; simple average if tested more than once. From the text: IL-17A(FLAG-Tagged): IL-17RA(His-Tagged) Binding Disruption Eu-HTRF Assay
An antibody directed against the FLAG tag of IL-17A (SEQ ID NO: 1) is labeled with the HTRF donor chromophore (Europium-cryptate). IL-17A is present as a dimer that is “locked into” this quaternary structure due to the formation of loop-spanning […] disulfide bridges. The construct of IL-17RA used in the assay excludes the […] portion of the receptor and is fused to a C-terminal 10×His tag (SEQ ID NO:2). An antibody directed against the His tag of the IL-17RA chimera is labeled with the HTRF acceptor chromophore (“D2”). The fluorescence-resonance energy transfer (FRET) depends on the vicinity of the donor chromophore to the acceptor, and interruption of the binding between the IL-17A and IL-17RA causes the reduction/loss of FRET. Therefore, this assay allows to evaluate the compound effect on the binding IL-17A and IL-17RA by monitoring the fluorescence intensity of donor vs acceptor. The assay is run as described below.
40 nL of 2-fold serial diluted compound solution for total 22 dilution points is added into each well of a 1536-well, white, low-volume, non-binding plate (Greiner #782904), then 2 μL of FLAG tagged IL-17A at 2× final concentration (2.5 nM) in solution of PBS+0.01% Triton-X100 is added to each well. The assay plate is briefly centrifuged then incubated for 1 h at rt. A mixed solution is prepared containing 2×5 nM 10HIS×IL-17RA, 2×2.5 nM Eu-anti-FLAG (CISBIO), 2×5 nM D2-anti-HIS (CISBIO) in PBS+0.01% Triton-X100+200 mM Potassium Fluoride (Sigma 60238) and 2 μL of mix is added to each well of the assay plate. The plate is briefly centrifuged then incubated for 2 h at rt. The HTRF intensities at the wavelength of donor (620 nm) and acceptor (665 nm) are measured using BMG Pherastar. The ratio between intensities at two wavelengths is calculated and plotted against the compound concentration and the data is fitted to a one-site competition model to yield IC50 of the compound.
For orientation: Time-resolved FRET reads energy transfer from a long-lived donor to a nearby acceptor.

Sequence of UniProt Q16552 (Q16552 with tags, fused parts or gaps K93Q): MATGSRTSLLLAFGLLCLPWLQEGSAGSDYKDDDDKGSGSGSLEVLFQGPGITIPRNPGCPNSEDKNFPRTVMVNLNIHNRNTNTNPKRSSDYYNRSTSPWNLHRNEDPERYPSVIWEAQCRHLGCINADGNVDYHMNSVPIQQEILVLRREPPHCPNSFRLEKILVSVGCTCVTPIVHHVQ

A word on the IC50: it is the concentration at which inhibition is half-maximal. As to `O=C(CCC(F)(F)F)NC(c1ccn2cc([C@@H](NC(=O)c3ccn(CCC(F)(F)F)n3)C3CCC(F)(F)CC3)nc2n1)C1CC1` (single isomer, unassigned) [Example 43, N—((S)-(7-((R*)-Cyclopropyl(4,4,4-trifluorobutanamido)methyl)imidazo[1,2-a]pyrimidin-2-yl)(4,4-difluorocyclohexyl)methyl)-1-(3,3,3-trifluoropropyl)-1H-pyrazole-3-carboxamide], the IC50 in assay [1] was around 20 µM; in assay [2] it was 5.7 µM.

On to `Cn1nccc1C(=O)N[C@H](c1cn2ccc(C(NC(=O)CCC(F)(F)F)C3CC3)nc2n1)C1CCC(F)(F)CC1` (single isomer, unassigned) [Example 44, N—((S)-(7-((S*)-Cyclopropyl(4,4,4-trifluorobutanamido)methyl)imidazo[1,2-a]pyrimidin-2-yl)(4,4-difluorocyclohexyl)methyl)-1-methyl-1H-pyrazole-5-carboxamide], for which the figures for the IC50 in assay [1] and in assay [2] were 0.17 µM and 0.22 µM, respectively.

For `Cn1nccc1C(=O)N[C@H](c1cn2ccc(C(NC(=O)CCC(F)(F)F)C3CC3)nc2n1)C1CCC(F)(F)CC1` (single isomer, unassigned) [Example 45, N—((S)-(7-((R*)-Cyclopropyl(4,4,4-trifluorobutanamido)methyl)imidazo[1,2-a]pyrimidin-2-yl)(4,4-difluorocyclohexyl)methyl)-1-methyl-1H-pyrazole-5-carboxamide], the IC50 in assay [1] turned out to be 2.1 µM; in assay [2], 2.9 µM.

Consider `CC(C)n1nccc1C(=O)N[C@H](c1cn2ccc(C(NC(=O)CCC(F)(F)F)C3CC3)nc2n1)C1CCC(F)(F)CC1` (single isomer, unassigned) [Example 46, N—((S)-(7-((S*)-Cyclopropyl(4,4,4-trifluorobutanamido)methyl)imidazo[1,2-a]pyrimidin-2-yl)(4,4-difluorocyclohexyl)methyl)-1-isopropyl-1H-pyrazole-5-carboxamide], for which the IC50 in assay [1] and in assay [2] was 2.6 µM each time.

With `CC(C)n1nccc1C(=O)N[C@H](c1cn2ccc(C(NC(=O)CCC(F)(F)F)C3CC3)nc2n1)C1CCC(F)(F)CC1` (single isomer, unassigned) [Example 47, N—((S)-(7-((R*)-Cyclopropyl(4,4,4-trifluorobutanamido)methyl)imidazo[1,2-a]pyrimidin-2-yl)(4,4-difluorocyclohexyl)methyl)-1-isopropyl-1H-pyrazole-5-carboxamide], the values for the IC50 in assay [1] and in assay [2] were 0.12 µM and 0.41 µM, respectively.

Consider `O=C(CCC(F)(F)F)NC(c1ccn2cc([C@@H](NC(=O)c3cnn(CCC(F)(F)F)c3)C3CCC(F)(F)CC3)nc2n1)C1CC1` (single isomer, unassigned) [Example 49, N—((S)-(7-((S*)-Cyclopropyl(4,4,4-trifluorobutanamido)methyl)imidazo[1,2-a]pyrimidin-2-yl)(4,4-difluorocyclohexyl)methyl)-1-(3,3,3-trifluoropropyl)-1H-pyrazole-4-carboxamide], for which the IC50 in assay [1] (Homo sapiens, Keratinocyte) came to 0.74 µM; in assay [2], 0.5 µM.

Turning to `Cc1nonc1C(=O)N[C@H](c1cn2ccc([C@H](NC(=O)CC3CC3(F)F)C3CC3)nc2n1)C1CCC(F)(F)CC1` (single isomer, unassigned) [Example 51, N—((S)-(7-((R)-Cyclopropyl(2-((S*)-2,2-difluorocyclopropyl)acetamido)methyl)imidazo[1,2-a]pyrimidin-2-yl)(4,4-difluorocyclohexyl)methyl)-4-methyl-1,2,5-oxadiazole-3-carboxamide], the IC50 was found to be 2 µM in assay [1] (Homo sapiens, Keratinocyte) and 0.36 µM in assay [2].

Consider `Cc1nonc1C(=O)N[C@H](c1cn2ccc([C@H](NC(=O)CC3CC3(F)F)C3CC3)nc2n1)C1CCC(F)(F)CC1` (single isomer, unassigned) [Example 52, N—((S)-(7-((R)-Cyclopropyl(2-((R*)-2,2-difluorocyclopropyl)acetamido)methyl)imidazo[1,2-a]pyrimidin-2-yl)(4,4-difluorocyclohexyl)methyl)-4-methyl-1,2,5-oxadiazole-3-carboxamide], for which the results for the IC50 in assay [1] and in assay [2] were 2.8 µM and 0.68 µM, respectively.

Regarding `Cc1conc1C(=O)N[C@H](c1cn2ccc([C@H](NC(=O)CC3CC3(F)F)C3CC3)nc2n1)C1CCC(F)(F)CC1` (single isomer, unassigned) [Example 53, N—((S)-(7-((R)-Cyclopropyl(2-((S*)-2,2-difluorocyclopropyl)acetamido)methyl)imidazo[1,2-a]pyrimidin-2-yl)(4,4-difluorocyclohexyl)methyl)-4-methylisoxazole-3-carboxamide], the IC50 in assay [1] (Homo sapiens, Keratinocyte) was determined as 2.3 µM; in assay [2], 0.49 µM.

For the molecule `Cc1conc1C(=O)N[C@H](c1cn2ccc([C@H](NC(=O)CC3CC3(F)F)C3CC3)nc2n1)C1CCC(F)(F)CC1` (single isomer, unassigned) [Example 54, N—((S)-(7-((R)-Cyclopropyl(2-((R*)-2,2-difluorocyclopropyl)acetamido)methyl)imidazo[1,2-a]pyrimidin-2-yl)(4,4-difluorocyclohexyl)methyl)-4-methylisoxazole-3-carboxamide], the results for the IC50 in assay [1] and in assay [2] were 4.5 µM and 0.46 µM, respectively.

On to `O=C(CC1CC1(F)F)N[C@@H](c1ccn2cc([C@@H](NC(=O)c3ncnn3CC3CC3)C3CCC(F)(F)CC3)nc2n1)C1CC1` (single isomer, unassigned) [Example 55, N—((S)-(7-((R)-Cyclopropyl(2-((S*)-2,2-difluorocyclopropyl)acetamido)methyl)imidazo[1,2-a]pyrimidin-2-yl)(4,4-difluorocyclohexyl)methyl)-1-(cyclopropylmethyl)-1H-1,2,4-triazole-5-carboxamide], for which the IC50 was determined as 1.1 µM in assay [1] (Homo sapiens, Keratinocyte) and 0.57 µM in assay [2].

Take `O=C(CC1CC1(F)F)N[C@@H](c1ccn2cc([C@@H](NC(=O)c3ncnn3CC3CC3)C3CCC(F)(F)CC3)nc2n1)C1CC1` (single isomer, unassigned) [Example 56, N—((S)-(7-((R)-Cyclopropyl(2-((R*)-2,2-difluorocyclopropyl)acetamido)methyl)imidazo[1,2-a]pyrimidin-2-yl)(4,4-difluorocyclohexyl)methyl)-1-(cyclopropylmethyl)-1H-1,2,4-triazole-5-carboxamide]: the IC50 in assay [1] came to 1.8 µM; in assay [2], 0.73 µM.

Take `O=C(CC1CC1(F)F)N[C@@H](c1ccn2cc([C@@H](NC(=O)c3conc3C(F)(F)F)C3CCC(F)(F)CC3)nc2n1)C1CC1` (single isomer, unassigned) [Example 57, N—((S)-(7-((R)-Cyclopropyl(2-((S*)-2,2-difluorocyclopropyl)acetamido)methyl)imidazo[1,2-a]pyrimidin-2-yl)(4,4-difluorocyclohexyl)methyl)-3-(trifluoromethyl)isoxazole-4-carboxamide]: the results for the IC50 in assay [1] and in assay [2] were 0.93 µM and 0.22 µM, respectively.

As to `O=C(CC1CC1(F)F)N[C@@H](c1ccn2cc([C@@H](NC(=O)c3conc3C(F)(F)F)C3CCC(F)(F)CC3)nc2n1)C1CC1` (single isomer, unassigned) [Example 58, N—((S)-(7-((R)-Cyclopropyl(2-((R*)-2,2-difluorocyclopropyl)acetamido)methyl)imidazo[1,2-a]pyrimidin-2-yl)(4,4-difluorocyclohexyl)methyl)-3-(trifluoromethyl)isoxazole-4-carboxamide], the values for the IC50 in assay [1] and in assay [2] were 2.2 µM and 0.34 µM, respectively.
